Measured values published in BigSolDB 2.1.

CC1CCC(=O)C1=O (stereo unspecified)
solubility (mole fraction)
Settings	278.15 K	283.15 K	288.15 K	293.15 K	298.15 K	303.15 K	308.15 K	313.15 K
in 1,2-dichloroethane	0.0554	0.0773	0.0992	0.122	0.153	0.184	0.215	0.254
in acetone	0.0937	0.105	0.133	0.152	0.182	0.221	0.255	0.298
in acetonitrile	0.0331	0.0519	0.0657	0.0823	0.11	0.139	0.17	0.204
in dichloromethane	0.103	0.123	0.145	0.18	0.217	0.251	0.292	0.333
in ethanol	0.044	0.0503	0.0645	0.0752	0.0939	0.111	0.145	0.187
in ethyl acetate	0.0482	0.0574	0.0698	0.094	0.131	0.156	0.203	0.251
in ethyl formate	0.0504	0.0603	0.0707	0.0943	0.12	0.147	0.176	0.239
in isobutanol	0.0394	0.0467	0.052	0.0701	0.0866	0.111	0.153	0.211
in isopropanol	0.0198	0.0388	0.0599	0.0768	0.101	0.13	0.165	0.207
in methanol	0.0488	0.0629	0.0787	0.0966	0.119	0.147	0.177	0.208
in n-butanol	0.0353	0.0444	0.0552	0.0693	0.0858	0.105	0.133	0.18
in n-propanol	0.0389	0.0474	0.0581	0.0731	0.0903	0.113	0.141	0.202
